Legend:
Type in all cases: in vivo
[1] = tested on: adult American dog tick (Dermacentor variabilis); test: Example 4: efficacy against adult American dog tick infestations on dogs; settings: for therapeutic efficacy: 24 hour post-treatment
Protocol: The therapeutic (knockdown) and residual efficacy of 7, administered orally at a point dosages of 5 and 25 mg/kg bodyweight, was evaluated against adult American dog tick (D. variabilis) and cat flea (C. felis) infestations on dogs. Sixteen (16) male and female beagle dogs were allocated to one of four treatment groups: Untreated control group (n=4 dogs); 7, 5 mg/kg liquid oral dosage form (n=4 dogs); 7, 25 mg/kg liquid oral dosage form (n=4 dogs); and 7, 25 mg/kg solid oral dosage form. Liquid dosage forms were prepared by dissolving 7 in a solution of 55% polyethylene glycol-300, 35% propylene glycol and 10% water at 25 mg/ml. Solid oral dosage form was prepared by thoroughly mixing 7 with microcrystalline cellulose and croscarmellose sodium (50:47:3, w/w) and placing into size 00 gelatin capsules. On Day 0, all dogs were orally administered 7 at the prescribed point dosages. Twenty-four (24) hours before treatment (Day −1), all dogs were infested with approximately 50 unfed, adult-stage American dog ticks (D. variabilis; approximately 50% male and 50% female). […] For all groups, dogs were re-infested with approximately 50 unfed, adult D. variabilis ticks on Days 5 and 12, with tick classification, counts and removal on Days 7 and 14 (approximately 48 hours after each infestation). For negative control and 7 (25 mg/kg solid oral dosage form) groups, dogs were re-infested with approximately 50 unfed, adult D. variabilis ticks on Days 19 and 28, with tick classification, counts and removal on Days 21 and 30. Immediately following removal of ticks on Day 30, dogs in the negative control and 7 (25 mg/kg solid oral dosage form) groups were infested with approximately 100 unfed, adult cat fleas (C. felis). Flea counts were conducted approximately 48 hours later, on Day 32.
The total number of live ticks or fleas (normal plus moribund classification) present on each dog was determined for each interval, and this number was transformed using the natural logarithm transformation plus one (Ln count+1); addition of one to each count served to adjust for counts that were zero. Geometric mean (GM) group tick or flea counts were obtained via back-transformation of group mean transformed counts and subtracting one. The negative control group was used for comparison to 7 groups for the calculation of percent efficacy (% reduction in live tick or flea counts). GM percent efficacy of treatments was calculated using the following formula: […]

[2] = tested on: cat flea (Ctenocephalides felis); test: Example 4: efficacy against cat flea infestations on dogs; settings: 25 mg/kg oral, solid dosage form, Day 32
Protocol: The therapeutic (knockdown) and residual efficacy of 7, administered orally at a point dosages of 5 and 25 mg/kg bodyweight, was evaluated against adult American dog tick (D. variabilis) and cat flea (C. felis) infestations on dogs. Sixteen (16) male and female beagle dogs were allocated to one of four treatment groups: Untreated control group (n=4 dogs); 7, 5 mg/kg liquid oral dosage form (n=4 dogs); 7, 25 mg/kg liquid oral dosage form (n=4 dogs); and 7, 25 mg/kg solid oral dosage form. Liquid dosage forms were prepared by dissolving 7 in a solution of 55% polyethylene glycol-300, 35% propylene glycol and 10% water at 25 mg/ml. Solid oral dosage form was prepared by thoroughly mixing 7 with microcrystalline cellulose and croscarmellose sodium (50:47:3, w/w) and placing into size 00 gelatin capsules. On Day 0, all dogs were orally administered 7 at the prescribed point dosages. […]
The total number of live ticks or fleas (normal plus moribund classification) present on each dog was determined for each interval, and this number was transformed using the natural logarithm transformation plus one (Ln count+1); addition of one to each count served to adjust for counts that were zero. […] GM percent efficacy of treatments was calculated using the following formula: […]

[3] = tested on: adult American dog tick (Dermacentor variabilis); test: Example 6: efficacy against adult American dog tick infestations on dogs, 48 h and 72 h counts; settings: 50 mg/kg oral
Protocol: […] Twelve (12) male and female beagle dogs were allocated to three treatment groups: Untreated, negative control A; 7 group B; and 7 group C (n=4 dogs per group). Dogs were infested with approximately 50 unfed, adult D. variabilis ticks on Days −1, 5, 12, 19 and 28. For 7 group B dogs, tick counts and classification were conducted at 48 hour post-treatment or post-infestation intervals on Days 2, 7, 14, 21 and 30. For negative control group A and 7 group C dogs, tick counts and classification were conducted at 72 hour post-treatment or post-infestation intervals on Days 3, 8, 15, 22 and 31. On Day 0, dogs in groups B and C were orally administered gelatin capsules containing 7 (50% technical active, 47% microcrystalline cellulose and 3% croscarmellose sodium, w/w) at a point dose of 50 mg/kg. Both 48 hour and 72 hour counts in the treated groups were adjusted to counts from the same 72 hour negative control group. GM percent efficacy of treatments was calculated using the following formula:

[4] = 5 mg/kg oral, liquid dosage form, Day 2
[5] = 5 mg/kg oral, liquid dosage form, Day 7
[6] = 5 mg/kg oral, liquid dosage form, Day 14

With `CC1(C)OB(O)c2ccc(C3=NOC(c4cc(Cl)c(Cl)c(Cl)c4)(C(F)(F)F)C3)cc21` (racemic) [Compound 7, 3,3-Dimethyl-5-(5-(3,4,5-trichlorophenyl)-5-(trifluoromethyl)-4,5-dihydroisoxazol-3-yl)benzo[c][1,2]oxaborol-1(3H)-ol] the “therapeutic and residual efficacy” value ([1]; 5 mg/kg liquid oral dosage form, all intervals) was < 70%, the “% efficacy” value [1, 4] was “(68.2) %” and the “Geometric mean group live tick count” value [1, 4] was 10.6. The “% efficacy” value [1, 5] was “(0.0) %”, the “Geometric mean group live tick count” value [1, 5] was 36.5 and the “% efficacy” value [1, 6] was “(0.0) %”. The “Geometric mean group live tick count” value [1, 6] was 36.8, the therapeutic efficacy ([1]; 25 mg/kg oral, liquid dosage form) was 100% and the “Geometric mean group live tick count” value ([1]; 25 mg/kg oral, liquid dosage form, Day 2) was 0.0. For the same compound, the “Geometric mean group live tick count” value ([1]; 25 mg/kg oral, liquid dosage form, Day 7) was 2.6, the “Geometric mean group live tick count” value ([1]; 25 mg/kg oral, liquid dosage form, Day 14) was 16.9 and the therapeutic efficacy ([1]; 25 mg/kg oral, solid dosage form) was 100%. The “Geometric mean group live tick count” value ([1]; 25 mg/kg oral, solid dosage form, Day 2) was 0.0, the “Geometric mean group live tick count” value ([1]; 25 mg/kg oral, solid dosage form, Day 7) was 0.7 and the “Geometric mean group live tick count” value ([1]; 25 mg/kg oral, solid dosage form, Day 14) was 6.3. The “Geometric mean group live tick count” value ([1]; 25 mg/kg oral, solid dosage form, Day 21) was 6.8, the “Geometric mean group live tick count” value ([1]; 25 mg/kg oral, solid dosage form, Day 30) was 10.7 and the “Geometric mean group live flea count” value [2] was 3.9. The “Geometric mean group live tick count” value ([3]; Week 0, 48 h count (Day 2)) was 0.3, the “Geometric mean group live tick count” value ([3]; Week 0, 72 h count (Day 3)) was 0.0 and the “% efficacy” value ([3]; Week 1, 48 h count (Day 7)) was “(85.1) %”. For the same compound, the “Geometric mean group live tick count” value ([3]; Week 1, 48 h count (Day 7)) was 2.6, the “% efficacy” value ([3]; Week 1, 72 h count (Day 8)) was “(100) %” and the “Geometric mean group live tick count” value ([3]; Week 1, 72 h count (Day 8)) was 0.0. For the same compound, the “% efficacy” value ([3]; Week 2, 48 h count (Day 14)) was “(78.3) %”, the “Geometric mean group live tick count” value ([3]; Week 2, 48 h count (Day 14)) was 6.1 and the “% efficacy” value ([3]; Week 2, 72 h count (Day 15)) was “(99.3) %”. The “Geometric mean group live tick count” value ([3]; Week 2, 72 h count (Day 15)) was 0.2, the “% efficacy” value ([3]; Week 3, 48 h count (Day 21)) was “(13.0) %” and the “Geometric mean group live tick count” value ([3]; Week 3, 48 h count (Day 21)) was 10.7. The “% efficacy” value ([3]; Week 3, 72 h count (Day 22)) was “(100) %”, the “Geometric mean group live tick count” value ([3]; Week 3, 72 h count (Day 22)) was 0.0 and the “% efficacy” value ([3]; Week 4, 48 h count (Day 30)) was “(35.5) %”. For the same compound, the “Geometric mean group live tick count” value ([3]; Week 4, 48 h count (Day 30)) was 16.3, the “Geometric mean group live tick count” value ([3]; Week 4, 72 h count (Day 31)) was 0.8 and the “Residual efficacy using 72 hour count intervals” value ([3]; through week 3 (Day 22)) was > 99%. For the same compound, the “Residual efficacy at 48 hour intervals” value ([3]; through week 4 (Day 30)) was < 90%.

Reference: patent publication US9156860B2, “Boron-containing small molecules” (Anacor Pharmaceuticals, Inc., priority 2011, dated 2015)
